Converted amounts (≈) assume the structure as drawn. The source made the active and inactive calls. The calls are words filed in the database; no cut-off is given here.
Experiments:
Escherichia coli [1] = experiment: Bactericidal activity against clinical isolates of Escherichia coli PGI/DML02292 assessed as surface blebs at 4 times MIC after 30 mins by […] microscopy relative to control; type: functional, organism-based
[2] = Toxicity in albino mouse assessed as mortality at 45 mg/kg, iv; type: organism-based; set-up: dose 45 mg/kg, route intravenous; details: in vivo
Haemophilus influenzae [3] = experiment: Antibacterial activity against clinical isolates of ciprofloxacin-resistant Haemophilus influenzae PGI/DML01744 after overnight incubation by microdilution broth assay; type: functional
Escherichia coli [4] = experiment: Induction of membrane damage in Escherichia coli PGI/DML02292 at 9 ug/ml after 30 mins by propidium iodide staining-based flow cytometry relative to control; type: functional
Staphylococcus aureus [5] = experiment: Antibacterial activity against Staphylococcus aureus PGI/DML03149 infected in Swiss albino mouse assessed as log reduction at 10 mg/kg administered […] at 1 hr post infection relative to control; type: functional
Escherichia coli [6] = experiment: Antibacterial activity against Escherichia coli PGI/DML02292 infected in Swiss albino mouse assessed as log reduction at 5 mg/kg administered twice at 1 hr and 5 hrs post infection relative to control; type: functional
Enterococcus faecium [7] = experiment: Antibacterial activity against clinical isolates of Enterococcus faecium GMCH/B0102 after overnight incubation by microdilution broth assay; type: functional
[8] = Toxicity in albino mouse assessed as mortality at 5 mg/kg, iv; type: organism-based; set-up: dose 5 mg/kg, route intravenous; details: in vivo
Mus musculus [9] = experiment: Toxicity in albino mouse assessed as syncope at 90 to 150 mg/kg, iv measured for 14 days; type: organism-based; set-up: dose 90-150 mg/kg, route intravenous; details: in vivo, 336 h
Mus musculus [10] = experiment: Toxicity in albino mouse assessed as hypoactivity at 45 to 75 mg/kg, iv measured for 14 days; type: organism-based; set-up: dose 45-75 mg/kg, route intravenous; details: in vivo, 336 h
Mus musculus [11] = experiment: Toxicity in albino mouse assessed as death at 1 to 30 mg/kg, iv measured for 14 days; type: organism-based; set-up: dose 1-30 mg/kg, route intravenous; details: in vivo, 336 h
Acinetobacter baumannii [12] = experiment: Antibacterial activity against clinical isolates of Acinetobacter baumannii GMCH/B0083 after overnight incubation by microdilution broth assay; type: functional
[13] = Toxicity in albino mouse assessed as mortality at 150 mg/kg, iv; type: organism-based; set-up: dose 150 mg/kg, route intravenous; details: in vivo
Klebsiella pneumoniae [14] = experiment: Antibacterial activity against clinical isolates of Klebsiella pneumoniae GMCH/B0127 after overnight incubation by microdilution broth assay; type: functional
Streptococcus pneumoniae [15] = experiment: Antibacterial activity against clinical isolates of erythromycin-resistant Streptococcus pneumoniae PGI/DML02213 after overnight incubation by microdilution broth assay; type: functional
Escherichia coli [16] = experiment: Antibacterial activity against Escherichia coli PGI/DML02292 infected in Swiss albino mouse assessed as log reduction at 10 mg/kg administered at 1 hr post infection relative to control; type: functional
Pseudomonas aeruginosa [17] = experiment: Antibacterial activity against clinical isolates of streptomycin-resistant Pseudomonas aeruginosa PGI/DML01991 after overnight incubation by microdilution broth assay; type: functional
Mus musculus [18] = experiment: (§1) Toxicity in iv dosed albino mouse; type: organism-based; details: in vivo
[19] = as §1; type: organism-based; details: in vivo
Staphylococcus aureus [20] = experiment: Antibacterial activity against Staphylococcus aureus PGI/DML03149 infected in Swiss albino mouse assessed as log reduction at 3 mg/kg administered twice at 1 hr and 5 hrs post infection relative to control; type: functional
Mus musculus [21] = experiment: Toxicity in albino mouse assessed as mortality latency at 120 mg/kg, iv; type: organism-based; set-up: dose 120 mg/kg, route intravenous; details: in vivo
Escherichia coli [22] = experiment: Binding affinity to Escherichia coli PGI/DML02292 DNA at 12 ug/ml after 1 hr by agarose gel electrophoresis
Staphylococcus aureus [23] = experiment: Antibacterial activity against Staphylococcus aureus PGI/DML03149 infected in Swiss albino mouse assessed as log reduction at 1 mg/kg administered twice at 1 hr and 5 hrs post infection relative to control; type: functional
Klebsiella pneumoniae [24] = experiment: Antibacterial activity against clinical isolates of kanamycin-resistant Klebsiella pneumoniae GMCH/R-Kan006 after overnight incubation by microdilution broth assay; type: functional
Streptococcus pneumoniae [25] = experiment: Antibacterial activity against clinical isolates of Streptococcus pneumoniae PGI/DML02468 after overnight incubation by microdilution broth assay; type: functional
Enterococcus faecalis = experiment: Antibacterial activity against clinical isolates of gentamicin-resistant Enterococcus faecalis GMCH/R-Gen011 after overnight incubation by microdilution broth assay; type: functional
Haemophilus influenzae [26] = experiment: Antibacterial activity against clinical isolates of Haemophilus influenzae PGI/DML01751 after overnight incubation by microdilution broth assay; type: functional
Acinetobacter baumannii [27] = experiment: Antibacterial activity against clinical isolates of imipenem-resistant Acinetobacter baumannii GMCH/R-Imi003 after overnight incubation by microdilution broth assay; type: functional
[28] = system: Staphylococcus epidermidis; experiment: Antibacterial activity against clinical isolates of ampicillin-resistant Staphylococcus epidermidis GMCH/R-Amp008 after overnight incubation by microdilution broth assay; type: functional
Escherichia coli [29] = experiment: Bactericidal activity against clinical isolates of Escherichia coli PGI/DML02292 assessed as disruption of cell structure at 4 times MIC after 30 mins by transmission electron microscopy relative to control; type: functional, organism-based
Escherichia coli [30] = experiment: Antibacterial activity against clinical isolates of imipenem-resistant Escherichia coli PGI/DML02292 after overnight incubation by microdilution broth assay; type: functional
Escherichia coli [31] = experiment: Antibacterial activity against Escherichia coli PGI/DML02292 infected in Swiss albino mouse assessed as log reduction at 1 mg/kg administered twice at 1 hr and 5 hrs post infection relative to control; type: functional
Enterococcus faecium [32] = experiment: Antibacterial activity against clinical isolates of penicillin-resistant Enterococcus faecium GMCH/R-Pen003 after overnight incubation by microdilution broth assay; type: functional
Mus musculus [33] = experiment: Toxicity in albino mouse assessed as piloerection at 75 mg/kg, iv measured for 14 days; type: organism-based; set-up: dose 75 mg/kg, route intravenous; details: in vivo, 336 h
[34] = Toxicity in albino mouse assessed as mortality at 30 mg/kg, iv; type: organism-based; set-up: dose 30 mg/kg, route intravenous; details: in vivo
Staphylococcus aureus [35] = experiment: Antibacterial activity against clinical isolates of methicillin-resistant Staphylococcus aureus PGI/DML03149 after overnight incubation by microdilution broth assay; type: functional
[36] = Membrane permeabilization activity assessed as release of calcein from liposomes after 5 mins by fluorescence assay
Pseudomonas aeruginosa [37] = experiment: Antibacterial activity against clinical isolates of Pseudomonas aeruginosa PGI/DML02084 after overnight incubation by microdilution broth assay; type: functional
Staphylococcus aureus [38] = experiment: Antibacterial activity against Staphylococcus aureus PGI/DML03149 infected in Swiss albino mouse assessed as log reduction at 5 mg/kg administered […] at 1 hr post infection relative to control; type: functional
Escherichia coli [39] = experiment: Induction of membrane damage in Escherichia coli PGI/DML02292 at 3 ug/ml after 30 mins by propidium iodide staining-based flow cytometry relative to control; type: functional
Escherichia coli [40] = experiment: Antibacterial activity against Escherichia coli PGI/DML02292 infected in Swiss albino mouse assessed as log reduction at 3 mg/kg administered twice at 1 hr and 5 hrs post infection relative to control; type: functional
Escherichia coli [41] = experiment: Antibacterial activity against clinical isolates of Escherichia coli PGI/DML02250 after overnight incubation by microdilution broth assay; type: functional
Plasma = experiment: Drug degradation in human plasma at 1 ug/ml after 24 hrs by RP-HPLC analysis; type: ADME, cell-free
[42] = Cytotoxicity against human HaCaT cells assessed as cell viability at 100 ug/ml after 18 hrs by MTT assay; type: cell-based; details: read-out: Activity
Mus musculus [43] = experiment: Toxicity in albino mouse assessed as mortality latency at 75 mg/kg, iv; type: organism-based; set-up: dose 75 mg/kg, route intravenous; details: in vivo

Question: Which Activity (Escherichia coli [1]) does the source give for `CCCCCCCCCCCCCC(=O)NC(CCCN)C(=O)NC(CCCN)C(=O)NC(CCCN)C(N)=O` (stereo not drawn) here?
Answer: Active

Question: And the mortality [2]?
Answer: 15%

Question: What about the MIC (Haemophilus influenzae [3]) of the same compound?
Answer: 3.1 µg/mL (≈ 5.44 µM)

Question: What about the Activity (Escherichia coli [4]) of the same compound?
Answer: 79%

Question: What about the FC (Staphylococcus aureus [5]) of the same compound?
Answer: 4.59

Question: And the FC (Escherichia coli [6])?
Answer: 4.96

Question: And the MIC (Enterococcus faecium [7])?
Answer: 3.5 µg/mL (≈ 6.14 µM)

Question: What about the mortality [8] of the same compound?
Answer: 0%

Question: And the Activity (Mus musculus [9])?
Answer: Toxic

Question: What about the Activity (Mus musculus [10]) of the same compound?
Answer: Toxic

Question: What about the Activity (Mus musculus [11]) of the same compound?
Answer: Non-toxic

Question: What about the MIC (Acinetobacter baumannii [12]) of the same compound?
Answer: 2.5 µg/mL (≈ 4.39 µM)

Question: And the mortality [13]?
Answer: 85%

Question: And the MIC (Klebsiella pneumoniae [14])?
Answer: 4 µg/mL (≈ 7.02 µM)

Question: What about the MIC (Streptococcus pneumoniae [15]) of the same compound?
Answer: 4.2 µg/mL (≈ 7.37 µM)

Question: What about the FC (Escherichia coli [16]) of the same compound?
Answer: 5.41

Question: What about the MIC (Pseudomonas aeruginosa [17]) of the same compound?
Answer: 2.25 µg/mL (≈ 3.95 µM)

Question: And the LOAEL (Mus musculus [18])?
Answer: 45 mg/kg

Question: And the MLD (Mus musculus [18])?
Answer: 45 mg/kg

Question: And the LD50 [19]?
Answer: 81.3 mg/kg

Question: What about the MTD [19] of the same compound?
Answer: 30 mg/kg

Question: What about the NOAEL [19] of the same compound?
Answer: 30 mg/kg

Question: And the FC (Staphylococcus aureus [20])?
Answer: 2.8

Question: What about the Time (Mus musculus [21]) of the same compound?
Answer: > 48 h

Question: What about the Activity (Escherichia coli [22]) of the same compound?
Answer: inactive

Question: And the FC (Staphylococcus aureus [23])?
Answer: 0.84

Question: And the MIC (Klebsiella pneumoniae [24])?
Answer: 5.5 µg/mL (≈ 9.65 µM)

Question: What about the MIC (Streptococcus pneumoniae [25]) of the same compound?
Answer: 4.5 µg/mL (≈ 7.9 µM)

Question: What about the MIC (Enterococcus faecalis) of the same compound?
Answer: 4.5 µg/mL (≈ 7.9 µM)

Question: And the MIC (Haemophilus influenzae [26])?
Answer: 4.5 µg/mL (≈ 7.9 µM)

Question: And the MIC (Acinetobacter baumannii [27])?
Answer: 3.25 µg/mL (≈ 5.7 µM)

Question: And the MIC [28]?
Answer: 3.1 µg/mL (≈ 5.44 µM)

Question: And the Activity (Escherichia coli [29])?
Answer: Active

Question: And the MIC (Escherichia coli [30])?
Answer: 5.5 µg/mL (≈ 9.65 µM)

Question: What about the FC (Escherichia coli [31]) of the same compound?
Answer: 1.08

Question: And the MIC (Enterococcus faecium [32])?
Answer: 3.1 µg/mL (≈ 5.44 µM)

Question: What about the Activity (Mus musculus [33]) of the same compound?
Answer: Toxic

Question: And the mortality [34]?
Answer: 0%

Question: What about the MIC (Staphylococcus aureus [35]) of the same compound?
Answer: 3.1 µg/mL (≈ 5.44 µM)

Question: What about the Activity [36] of the same compound?
Answer: Dose-dependent effect

Question: What about the MIC (Pseudomonas aeruginosa [37]) of the same compound?
Answer: 1.5 µg/mL (≈ 2.63 µM)

Question: And the FC (Staphylococcus aureus [38])?
Answer: 3.07

Question: And the Activity (Escherichia coli [39])?
Answer: 14%

Question: And the FC (Escherichia coli [40])?
Answer: 3.83

Question: And the MIC (Escherichia coli [41])?
Answer: 2 µg/mL (≈ 3.51 µM)

Question: And the Stability (Plasma)?
Answer: Stable

Question: What about the viability at 18 h, 100 ug/ml [42] of the same compound?
Answer: 92%

Question: What about the Time (Mus musculus [43]) of the same compound?
Answer: > 120 h

Source: ChEMBL document CHEMBL3352151, “In vitro and in vivo antibacterial evaluation and mechanistic study of ornithine based small cationic lipopeptides against antibiotic resistant clinical isolates” (Eur J Med Chem, 2014)
